Test system: hospitalized patients with coronavirus disease 2019 (COVID-19)
Assay: multicenter, randomized, double-blind, placebo-controlled Bayesian adaptive clinical trial for prevention and treatment of ARDS
Type: in vivo, human
Description: This example describes use of 5-(3-chlorophenyl)-3-hydroxypyridine-2-carbonyl] amino} acetic acid (vadadustat) in a multicenter, randomized, double-blind, placebo-controlled Bayesian adaptive clinical for the prevention and treatment of acute respiratory distress syndrome (ARDS) in hospitalized patients with coronavirus disease 2019 (COVID-19).
Inclusion criteria may include any or all of the following: • 1. Men and women ≥18 years of age. • 2. Laboratory-confirmed diagnosis of COVID-19 by detection of SARS-CoV-2 RNA by RT-PCR (reverse transcription polymerase chain reaction) from any specimen respiratory. • 3. Admitted to the hospital. • 4. Within 24 hours of hospital admission. • 5. Oxygen saturation of hemoglobin by pulse oximetry at room air ≤94%. • 6. Participation in any other clinical trial for the treatment for COVID-19 is not allowed. • 7. Understands the procedures and requirements of treatment and provides written informed consent and authorization for protected health information disclosure.
• 1. Males with hemoglobin >17.5 g/dL or females >15.5 g/dL. • 2. Hypersensitivity to vadadustat or any of its excipients. • 3. Placed on mechanical ventilation before randomization. • 4. Hemoglobin above the gender specific upper limit of normal (ULN) at randomization. • 5. Aspartate aminotransferase (AST), alanine aminotransferase (ALT), or total bilirubin >2.0×ULN at randomization. • 6. Patients who have erythrocytosis or polycethemia vera. • 7. Patients receiving any of the following medications: sulfasalazine or other BCRP substrates, probenecid or other UGT and OAT1/3 inhibitors. • 8. Women who are pregnant or breastfeeding, or positive pregnancy test before randomization. • 9. Patients on maintenance dialysis. • 10. Patients who have received a solid organ transplant. • 11. Patients who are prisoners.
Following screening, patients are randomized in a 1:1 ratio to either vadadustat 900 mg or placebo. Randomination is stratified by site, and MSOFA score at baseline (<4 and ≥4).
A subject may receive vadadustat (e.g., 900 mg vadadustat as 6 tablets once daily) for 14 days and without regard for meals at approximately the same time each day. Tablets can be crushed using a pill crusher and administered to an intubated patient through a nasogastric tube.
For example, the efficacy of vadadustat (e.g., 900 mg per day) for the prevention and treatment of ARDS among COVID-19 patients may be measured by ≥1 point deterioration on the NIAID ordinal scale for clinical improvement at day seven or day 14 of treatment.
Efficacy may also be assessed according to any of the following (including any combination thereof): • 1. The proportion of patients at day 14 who are dead (8) or hospitalized, on invasive mechanical ventilation or ECMO (7) or hospitalized, on non-invasive ventilation or high flow oxygen devices (6) on the NIAID-OS. • 2. Proportions of patients with a score of 0 at 14 days on the MSOFA (Modified Sequential Organ Failure Assessment) scale:
• 3. Average MSOFA scores at day 7 and day 14. • 4. Proportion of patients who develop ARDS or experienced increased ARDS severity from baseline based on the Berlin scale. • 5. Ventilator-free survival at day 7 and day 14. • 6. Overall survival at day 7 and day 14. • 7. Proportion of patients with hypotension (MAP (Mean Arterial Pressure)<70 mm Hg or requirement for inotropes or vasopressors to maintain blood pressure) at day 7 and day 14. • 8. Proportion of patients with acute kidney injury at day 7 and day 14. • 9. Time to hospital discharge.

[1] = vadadustat 900 mg once daily for 14 days compared to placebo, day 7 and day 14

## O=C(O)CNC(=O)c1ncc(-c2cccc(Cl)c2)cc1O [vadadustat, {[5-(3-chlorophenyl)-3-hydroxypyridine-2-carbonyl]amino}acetic acid]
Vadadustat 900 mg once daily for 14 days compared to placebo
  proportion of patients who develop ARDS or experienced increased ARDS severity from baseline based on the Berlin scale: a lower or a reduction
Vadadustat 900 mg once daily for 14 days compared to placebo, 14 days
  proportions of patients with a score of 0 at 14 days on the MSOFA: an increase
[1]
  average MSOFA scores at day 7 and day 14: a lower or a reduction
  number of overall survival at day 7 and day 14: a greater or an increase
  number of ventilator-free survival at day 7 and day 14: a greater or an increase
  proportion of patients with hypotension (MAP <70 mm Hg or requirement for inotropes or vasopressors to maintain blood pressure) at day 7 and day 14: a lower or a reduction
Vadadustat 900 mg once daily for 14 days versus placebo
  time to hospital discharge: a shorter or a reduction
Vadadustat 900 mg once daily for 14 days versus placebo, day 7 and day 14
  proportion of patients with acute kidney injury at day 7 and day 14: a lower or a reduction

Reference: patent US12629357B2, “Treatment of viral infections, of organ injury, and of related conditions using a HIF prolyl hydroxylase inhibitor or a HIF-alpha stabilizer” (Akebia Therapeutics, Inc., priority 2020, dated 2026)
